Experimental findings from US20260028365A1 (BIOGEN MA INC., priority 2022, published 2026) are described below.

In one assay the target is JH2 domain of human Tyk2 (Homo sapiens (Human), UniProt P29597). As to the kind of experiment: JH2 Biochemical Assay (TR-FRET probe displacement). The following applies: JH2 domain of human Tyk2, TR-FRET probe displacement. Format: binding. In general terms: Time-resolved FRET reads energy transfer from a long-lived donor to a nearby acceptor.
In the next assay the target is Tyk2 (Homo sapiens (Human), UniProt P29597). As to the kind of experiment: pSTAT4 Cell Assay (MSD, NK92 cells). Conditions: MSD. The class given is cell-based.
The next assay deals with JAK1 (Homo sapiens (Human), UniProt P23458). As to the kind of experiment: pSTAT3 Cell Assay (MSD, TF1 cells). Format: cell-based. The following applies: IL-6 stimulated, MSD. An outline of the steps:
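Serum-starved TF1 cells with endogenous JAK1/STAT3 were pretreated 1 h with compound in a 10-point four-fold dilution series from 10 μM, then stimulated with 30 ng/mL IL-6 for 15 min. pSTAT3 in lysates was quantified by MSD immunoassay, and IC50 came from 4-parameter logistic fits.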

Another assay has as its target JAK2 (Homo sapiens (Human), UniProt O60674). Put plainly: pSTAT5 Cell Assay (MSD, TF1 cells). Format: cell-based. Conditions: IL-3 stimulated, MSD. An outline of the steps:
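Serum-starved TF1 cells were pretreated with compound for 1 h (10-point four-fold series from 10 μM), then stimulated with 30 ng/mL IL-3 for 15 min. pSTAT5 in lysates was measured by MSD immunoassay. IC50 came from a 4-parameter logistic fit.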

JAK1, sequence (P23458 whole entry): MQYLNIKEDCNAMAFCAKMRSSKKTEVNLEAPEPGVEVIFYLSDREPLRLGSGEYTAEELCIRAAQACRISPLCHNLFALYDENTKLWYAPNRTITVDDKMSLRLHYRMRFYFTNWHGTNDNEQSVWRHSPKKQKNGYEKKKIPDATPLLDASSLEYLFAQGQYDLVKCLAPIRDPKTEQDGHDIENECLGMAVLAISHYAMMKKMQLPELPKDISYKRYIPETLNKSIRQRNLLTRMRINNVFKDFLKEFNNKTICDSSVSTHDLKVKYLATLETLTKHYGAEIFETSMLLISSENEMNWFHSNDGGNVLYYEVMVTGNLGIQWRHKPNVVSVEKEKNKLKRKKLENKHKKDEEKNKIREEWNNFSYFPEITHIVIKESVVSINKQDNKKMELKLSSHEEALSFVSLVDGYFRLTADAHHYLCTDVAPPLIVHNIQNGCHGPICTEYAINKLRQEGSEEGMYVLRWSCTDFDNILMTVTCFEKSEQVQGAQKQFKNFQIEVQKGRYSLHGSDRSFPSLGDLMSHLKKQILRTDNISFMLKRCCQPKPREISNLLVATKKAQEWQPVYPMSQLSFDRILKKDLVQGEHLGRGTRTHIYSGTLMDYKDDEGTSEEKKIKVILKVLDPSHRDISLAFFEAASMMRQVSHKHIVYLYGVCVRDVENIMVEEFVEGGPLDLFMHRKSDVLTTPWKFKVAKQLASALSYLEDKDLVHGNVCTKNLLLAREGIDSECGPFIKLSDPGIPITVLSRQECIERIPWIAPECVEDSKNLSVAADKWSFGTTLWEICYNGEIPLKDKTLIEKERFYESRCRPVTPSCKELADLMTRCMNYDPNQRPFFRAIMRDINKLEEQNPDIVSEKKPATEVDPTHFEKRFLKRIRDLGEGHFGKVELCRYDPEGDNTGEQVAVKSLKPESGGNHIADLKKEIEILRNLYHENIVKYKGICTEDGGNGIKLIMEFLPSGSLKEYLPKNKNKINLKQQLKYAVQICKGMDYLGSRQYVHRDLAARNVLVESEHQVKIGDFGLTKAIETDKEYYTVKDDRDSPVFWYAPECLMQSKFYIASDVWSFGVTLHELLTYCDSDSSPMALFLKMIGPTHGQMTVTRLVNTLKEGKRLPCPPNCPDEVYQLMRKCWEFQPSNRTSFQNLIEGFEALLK
JAK2, sequence (O60674 whole entry): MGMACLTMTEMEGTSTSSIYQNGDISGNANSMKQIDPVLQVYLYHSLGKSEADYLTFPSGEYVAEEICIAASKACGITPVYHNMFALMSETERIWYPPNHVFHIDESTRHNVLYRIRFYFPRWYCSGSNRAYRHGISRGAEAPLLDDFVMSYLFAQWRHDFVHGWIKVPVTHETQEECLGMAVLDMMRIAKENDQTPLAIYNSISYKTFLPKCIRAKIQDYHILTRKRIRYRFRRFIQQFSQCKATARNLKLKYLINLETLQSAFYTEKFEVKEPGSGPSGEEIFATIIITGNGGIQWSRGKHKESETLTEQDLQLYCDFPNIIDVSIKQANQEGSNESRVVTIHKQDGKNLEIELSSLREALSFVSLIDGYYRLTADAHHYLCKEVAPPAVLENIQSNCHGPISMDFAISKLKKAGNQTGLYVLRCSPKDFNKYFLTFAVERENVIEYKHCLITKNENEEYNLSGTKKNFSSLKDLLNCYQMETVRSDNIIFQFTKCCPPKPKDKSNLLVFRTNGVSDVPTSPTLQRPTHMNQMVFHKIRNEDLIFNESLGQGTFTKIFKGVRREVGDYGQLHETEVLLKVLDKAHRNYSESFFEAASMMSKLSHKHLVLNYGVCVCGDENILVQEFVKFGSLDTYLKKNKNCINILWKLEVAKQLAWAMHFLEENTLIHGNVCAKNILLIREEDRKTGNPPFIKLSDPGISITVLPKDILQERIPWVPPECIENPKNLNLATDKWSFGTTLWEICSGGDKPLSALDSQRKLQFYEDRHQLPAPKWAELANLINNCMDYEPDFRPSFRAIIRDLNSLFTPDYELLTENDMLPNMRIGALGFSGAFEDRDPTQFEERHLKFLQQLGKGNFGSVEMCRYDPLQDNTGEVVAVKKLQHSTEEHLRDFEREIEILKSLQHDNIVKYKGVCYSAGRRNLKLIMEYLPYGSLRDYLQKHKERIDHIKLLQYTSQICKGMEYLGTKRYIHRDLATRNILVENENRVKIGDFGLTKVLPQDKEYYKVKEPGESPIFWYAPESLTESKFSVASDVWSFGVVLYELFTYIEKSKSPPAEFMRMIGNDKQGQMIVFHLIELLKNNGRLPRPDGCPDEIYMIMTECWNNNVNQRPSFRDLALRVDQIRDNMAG
Tyk2, sequence (P29597 whole entry): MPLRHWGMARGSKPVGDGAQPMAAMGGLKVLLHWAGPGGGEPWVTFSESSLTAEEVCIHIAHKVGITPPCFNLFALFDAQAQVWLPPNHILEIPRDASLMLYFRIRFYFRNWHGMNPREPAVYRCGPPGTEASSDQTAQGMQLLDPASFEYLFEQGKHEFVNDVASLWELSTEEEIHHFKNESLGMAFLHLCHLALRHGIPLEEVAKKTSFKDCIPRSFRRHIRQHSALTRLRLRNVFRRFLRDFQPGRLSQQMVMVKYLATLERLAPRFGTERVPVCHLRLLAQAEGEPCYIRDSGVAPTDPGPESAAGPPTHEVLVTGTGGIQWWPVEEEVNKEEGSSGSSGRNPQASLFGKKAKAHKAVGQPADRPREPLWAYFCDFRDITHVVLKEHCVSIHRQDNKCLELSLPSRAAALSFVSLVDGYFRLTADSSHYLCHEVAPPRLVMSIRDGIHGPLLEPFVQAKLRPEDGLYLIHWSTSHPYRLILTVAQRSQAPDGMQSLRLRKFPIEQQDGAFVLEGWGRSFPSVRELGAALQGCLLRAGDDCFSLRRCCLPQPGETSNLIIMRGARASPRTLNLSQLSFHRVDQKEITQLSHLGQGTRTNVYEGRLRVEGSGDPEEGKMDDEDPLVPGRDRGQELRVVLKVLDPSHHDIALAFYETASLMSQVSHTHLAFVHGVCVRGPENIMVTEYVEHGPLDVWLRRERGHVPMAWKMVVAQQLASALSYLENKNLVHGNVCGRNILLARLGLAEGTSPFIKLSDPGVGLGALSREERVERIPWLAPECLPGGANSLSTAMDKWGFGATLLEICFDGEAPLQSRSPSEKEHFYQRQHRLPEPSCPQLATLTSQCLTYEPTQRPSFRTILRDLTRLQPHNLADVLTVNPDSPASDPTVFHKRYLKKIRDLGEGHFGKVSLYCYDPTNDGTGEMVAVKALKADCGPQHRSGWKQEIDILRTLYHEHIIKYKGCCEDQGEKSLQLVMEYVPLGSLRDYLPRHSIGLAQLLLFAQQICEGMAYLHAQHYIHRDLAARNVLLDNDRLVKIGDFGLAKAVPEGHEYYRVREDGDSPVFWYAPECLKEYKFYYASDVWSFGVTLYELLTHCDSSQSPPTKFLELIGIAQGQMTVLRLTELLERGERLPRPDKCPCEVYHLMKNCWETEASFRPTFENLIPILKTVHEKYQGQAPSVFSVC
JH2 domain of human Tyk2, sequence (P29597 575-876): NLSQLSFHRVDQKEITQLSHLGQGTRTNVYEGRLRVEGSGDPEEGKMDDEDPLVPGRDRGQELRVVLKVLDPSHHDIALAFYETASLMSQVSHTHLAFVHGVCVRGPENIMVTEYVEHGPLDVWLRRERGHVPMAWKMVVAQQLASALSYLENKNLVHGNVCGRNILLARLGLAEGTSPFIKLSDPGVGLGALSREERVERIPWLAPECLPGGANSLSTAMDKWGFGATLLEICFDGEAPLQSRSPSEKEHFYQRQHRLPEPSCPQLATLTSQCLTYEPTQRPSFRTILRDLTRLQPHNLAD

A word on the IC50: it is the point on the concentration scale where inhibition reaches its midpoint. For the molecule `CC(=O)Nc1cc(Nc2cc(OC3CC3)nc(C(C)(F)F)n2)c(OCC2COCCO2)cn1` (stereo not drawn) [Example 445, N-(5-((1,4-dioxan-2-yl)methoxy)-4-((6-cyclopropoxy-2-(1,1-difluoroethyl)pyrimidin-4-yl)amino)pyridin-2-yl)acetamide], the half-inhibitory concentration (IC50) at JH2 domain of human Tyk2 is no more than 0.01 µM; against Tyk2 it was no more than 0.01 µM; against JAK1, no less than 1 µM; against JAK2, no less than 1 µM.

Turning to `COCCOc1cnc(NC(C)=O)cc1Nc1cc(OC2CC2)nc(C(C)(C)F)n1` [Example 446, N-(4-((6-cyclopropoxy-2-(2-fluoropropan-2-yl)pyrimidin-4-yl)amino)-5-(2-methoxyethoxy)pyridin-2-yl)acetamide], the IC50 at JH2 domain of human Tyk2 is no more than 0.01 µM; on Tyk2 it was no more than 0.01 µM; at JAK1, no less than 1 µM; against JAK2, no less than 1 µM.

Regarding `CC(=O)Nc1cc(Nc2cc(C)nc(C(C)(F)F)n2)c(O)cn1` [Example 486, N-(4-((2-(1,1-difluoroethyl)-6-methylpyrimidin-4-yl)amino)-5-hydroxypyridin-2-yl)acetamide], the IC50 on JH2 domain of human Tyk2 is 0.01 to 0.1 µM; at Tyk2, no less than 1 µM; on JAK1 it was no less than 1 µM; against JAK2 it was no less than 1 µM.

For `[2H]C([2H])([2H])C([2H])([2H])Oc1cnc(NC(C)=O)cc1Nc1cc(NC2CCC2)nc(C(C)(F)F)n1` [Example 488, N-(4-((6-(cyclobutylamino)-2-(1,1-difluoroethyl)pyrimidin-4-yl)amino)-5-(ethoxy-d5)pyridin-2-yl)acetamide], the IC50 on JH2 domain of human Tyk2 is no more than 0.01 µM; on Tyk2, no more than 0.01 µM; on JAK1, no less than 1 µM; on JAK2 it was no less than 1 µM.

Take `[2H]C([2H])([2H])C([2H])([2H])Oc1cnc(NC(C)=O)cc1Nc1cc(OC2CC2)nc(C(C)(F)F)n1` [Example 489, N-(4-((6-cyclopropoxy-2-(1,1-difluoroethyl)pyrimidin-4-yl)amino)-5-(ethoxy-d5)pyridin-2-yl)acetamide]: the IC50 at JH2 domain of human Tyk2 is no more than 0.01 µM; on Tyk2, no more than 0.01 µM; against JAK1 it was no less than 1 µM; at JAK2, no less than 1 µM.

For `CCOc1cnc(NC(C)=O)cc1Nc1cc(OC2CC2)nc(C(C)(F)F)n1` [Example 490, N-(4-((6-cyclopropoxy-2-(1,1-difluoroethyl)pyrimidin-4-yl)amino)-5-ethoxypyridin-2-yl)acetamide], the IC50 is no more than 0.01 µM on JH2 domain of human Tyk2, no more than 0.01 µM against Tyk2, no less than 1 µM against JAK1 and no less than 1 µM against JAK2.

For `[2H]C([2H])([2H])C([2H])([2H])Oc1cnc(NC(C)=O)cc1Nc1cc(CC)nc(C(C)(F)F)n1` [Example 515, N-(4-((2-(1,1-difluoroethyl)-6-ethylpyrimidin-4-yl)amino)-5-(ethoxy-d5)pyridin-2-yl)acetamide], the IC50 is no more than 0.01 µM on JH2 domain of human Tyk2, 0.01 to 0.1 µM on Tyk2, no less than 1 µM on JAK1 and no less than 1 µM against JAK2.

Regarding `COCCOc1ccc(-c2cnc(NC(C)=O)cc2Nc2cc(C)nc(C(C)(F)F)n2)nc1` [Example 522, N-(4′-((2-(1,1-difluoroethyl)-6-methylpyrimidin-4-yl)amino)-5-(2-methoxyethoxy)-[2,3′-bipyridin]-6′-yl)acetamide], the IC50 at JH2 domain of human Tyk2 is no more than 0.01 µM; on Tyk2 it was no more than 0.01 µM; at JAK1, no less than 1 µM; against JAK2 it was no less than 1 µM.

For `CC(=O)Nc1cc(Nc2cc(C)nc(C(C)(F)F)n2)c(-c2cc3n(n2)CCOC3)cn1` [Example 528, N-(4-((2-(1,1-difluoroethyl)-6-methylpyrimidin-4-yl)amino)-5-(6,7-dihydrO4H-pyrazolo[5,1-c][1,4]oxazin-2-yl)pyridin-2-yl)acetamide], the half-maximal inhibitory concentration (IC50) was no more than 0.01 µM on JH2 domain of human Tyk2, no more than 0.01 µM at Tyk2, no less than 1 µM against JAK1 and no less than 1 µM at JAK2.
